Data published in US8653049B2, “Normuramyl glycopeptide compounds” (priority 2008, dated 2014).
“Also recorded” adds a separate entry of the source. Where two headings read alike, the source gives them in different places.

Tests used:
bone-marrow cells = assay: Restoration of bone-marrow proliferation in azathioprine-suppressed mice; format: in vivo, CBA/J mice; parameters: key: +: restoration under the level of intact bone-marrow response; ++: restoration above the level of intact bone-marrow response; conditions: two i.v. doses of 200 nmol 30 and 6 h before oral azathioprine 5 mg per mouse; bone marrow 66 h after
Procedure: CBA/J male mice 8 weeks old, weighing 18-20 g were administered two i.v. doses of 200 nmol test substance per mouse 30 and 6 h prior to oral application of azathioprine (Imuran Wellcome, 5 mg per mouse in a volume of 0.5 ml distilled water). Bone marrow (lavage of femurs) was sampled 66 h after the application of azathioprine. Pooled suspensions of bone-marrow cells from 3 mice were cultivated in RPMI-1640 medium with 5% of fetal bovine serum (both from Sigma) at a concentration of 2×10^5 cells/0.2 ml either without mitogen (spontaneous proliferation) or in the presence of T (phytohemagglutinin, PHA Murex, 50 μg/ml; concanavalin A, Con A Sigma, 1, 2.5 or 5 μg/ml) or B (lipopolysaccharide, LPS E. coli O55 Difco, 5 μg/ml) mitogens for 48 h at 37° C. in 5% CO2. Proliferative activity was measured by incorporation of 3H-thymidine (1 μCi/well) and expressed as stimulation index SI=mean cpm cultures with mitogen/mean cpm controls without mitogen. Statistical significance of stimulation was evaluated by the Student's t test.

[1] = tested on: myelin basic protein induced EAE; assay: Experimental allergic encephalomyelitis (EAE), Th1 adjuvant activity; format: in vivo, guinea pigs; conditions: for Positive animals (%) (incidence of EAE): 50 μg myelin basic protein + 1 mg test compound in FIA, footpads, up to day 21, FCA positive control
[2] = tested on: NK sensitive K562 cell line; assay: NK cell cytotoxicity of human PBMC, 51Cr-release against K562; format: cell-based; conditions: range 0.1 μM-100 μM; FIG. 28
Procedure: Ex vivo effects of test compounds on NK cells were evaluated on human peripheral blood mononuclear cells (PBMC). The NK cell cytotoxicity of healthy donors in the presence or absence of test compounds was measured in standard 4 hrs ^51Cr-release assay against NK sensitive K562 cell line in effector (PBMC) to target (K562) ratio 16:1. Test compounds were added at a concentration of 10^−7 mol/ml.
Testing of compounds 23, 24, 32, 33, 40 and 41 for their capacity to induce cell-mediated cytotoxicity of human eripheral blood mononuclear cells (PBMCs) is shown in FIGS. 27 and 28. All donors were healthy. […] The cytotoxicity of untreated controls (30.5%) was renormalized to 100%.

[3] = tested on: Friend leukemia virus (FLV); assay: Friend leukemia virus infection: survival, TER-119+ cells, spleen; conditions: for clonal expansion of TER-119+ erythroleukaemia cells in spleen / spleen size (weight): day 16; for clonal expansion of TER-119+ erythroleukaemia cells in spleen: FIG. 24; for spleen size (weight): FIG. 25
[4] = rabbits, 3 rabbits per group
Procedure: The test was conducted in an authorised laboratory, ITEST plus s.r.o., Bilé Vchýnice 10, 533 13 Vápno u Prelouce, Czech Republic, according to guide-lines CL 2005.
Rabbits (New Zeeland albino, 4-6 kg, 3 animals per group) were used for testing.
Liposomal preparations of muramyl glycopeptide derivatives were administered s.c. (100 nmol/kg). Empty liposomes were used as negative control and the liposomal as well as the free form of muramyl dipeptide (MDP) (25 μg/kg, corresponding to 50.7 nmol/kg) served as positive control. Temperature was measured in 1, 2, 3, 4,6 and 24 hour intervals.
Empty liposomes were used as negative control; and liposomal as well as free muramyl dipeptide (MDP) (50.7 nmol/kg) served as positive control. B30-norAbu-MDP (MT01, structure on page 5) served as additional control. Temperature was measured in 1, 2, 3, 4, 6 and 24 h intervals. The preparation passed the test if the Sum of ΔTmax remained below 1.1° C. (3 rabbits per group)

Salmonella enteritidis = assay: Stimulation of innate immunity against Salmonella Enteritidis; conditions: liposomal, 20 nmol per dose p.o. 72 and 24 h before infection (LD50); 5 mice
[5] = tested on: GM-CFC progenitors in bone marrow; assay: GM-CFC recovery, test compounds before sub-lethal irradiation; format: in vivo, ICR/CD-1 mice; conditions: s.c. 100 nmol 24 h before 6 Gy, day 13; FIGS. 33-35
Procedure: (§1) Institite of Cancer Research (ICR/CD-1) mice (female, age of 3 months, 3-4 per group) were stimulated by s.c. administration of test compounds (volume of 200 μl, 100 nmol per dose) 24 h before sublethal γ-irradiation (6 Gy, ^60Co γray source Chisostat, Chirana Ltd., Czech Republic, at a dose of 0.285 Gy/min.). Mice were sacrified at day 13 and recovery of GM-CFC in femour was assayed by counting of colonies (CFC) formed after cultivation in medium. Non-irradiated mice were used as control for normal GM-CFC count in femour. PBS and empty liposomes were used as controls for spontaneous recovery. Liposomal MDP was used as reference standard.
(§2) The following parameters of hemopoiesis were evaluated: • a) Blood leukocyte counts and bone marrow cellularity. Blood leukocytes (samples of blood drawn from an incision of the tail vein) and nucleated cell elements of the femoral bone marrow (femoral diaphyses flushed with saline) were estimated by means of Coulter Counter (Model ZN, Coulter Electronics). • b) Colony-forming cells in spleen. Endogenous spleen colony-forming units (E-CFUs) were measured on day 9 post the whole-body irradiation with 6.5 Gy (5 mice per group) according to Till and McCulloch. • c) GM-CFC progenitors in bone marrow. Femoral bone marrow cells were obtained from mice by flushing the femour with sterile IMDM medium. Harvested cells were calculated and diluted to 1.5×10^5 cells/ml and plated in triplicate in a semisolid environment created by plasma clot (Iscovess modification of Dulbecco's medium, 20% of fetal calf serum, 10% of colony-stimulating factor, 10% of citrate plasma, and CaCl2 1.5 mg/ml). The cultures were incubated for 7 days at 37° C. in 5% CO2. Colonies of at least 50 cells were scored at 40× magnification.
Statistical significance between individual experimental groups of mice in hemopoietic parameters was calculated by one-way analysis of variance. The Newman-Keuls test for comparison of all pairs of columns and the Dunnett test for comparison of all columns with the control column were used in the analysis.

[6] = tested on: r-hsp90 (Candida albicans hsp90) specific IgG antibodies; assay: Proteoliposome vaccine against C. albicans hsp90: antibody (humoral) response, ELISA; format: in vivo, BALB/c mice; conditions: Experiment 12.2; liposomal compound (5%) + Ni-HSP90, boost day 14; FIG. 13
Procedure: Proteoliposomes were prepared by coupling recombinant hsp90 antigen (r-hsp90, 6×HISTag) via a metal chelating lipid to liposomes containing muramyl glycopeptide derivatives as adjuvant component. BALB/c […] mice 4 to 5 weeks old (female 20±2 g, 5 animal per group) were immunized by the intradermal route either with 20 μg of free or liposomal r-hsp90 (volume of 60 μl) either with or without L18-norAbu-MDP and boosted 21 days later by the same composition of experimental vaccine. FCA was used as positive control r-hsp90. Liposomal vaccine composition 20 μg of rHSP90 antigen, 5% metallochelating lipid, 5% particular MT analogue, 90% phospolipids.
Blood samples were collected from the tail vein into heparinised capillary PCV tubes. After centrifugation, the upper part of the tube, containing […] blood serum, was cut off, thrown into […] diluting solution and thoroughly shaken. Thus, a basic dilution of 1:33 was obtained. The pre-diluted sera were kept at −20° C. Blood samples were collected before the first immunization, 2 weeks thereafter and subsequently at weekly intervals up to the 4th week after the second immunisation. Specific IgG antibodies in blood serum samples were determined by the standard indirect ELISA procedure. The data obtained were processed statistically using the non-parametric Mann-Whitney U-test.
Proteoliposomes with muramyl glycopeptide derivatives were prepared as described above, but the boost was carried out already after 14 days. The liposomal vaccine composition was as for Experiment Set 1: 20 μg of rHSP90 antigen, 5% metallochelating lipid, 5% particular MT analogue, 90% phospolipids.
Controls: Aluminum hydroxide (AlOH) and Freund complete adjuvans (FCA) were used as positive controls. PBS with empty liposomes was used as negative control (control). Humoral response was tested at day 14 after vaccination (post priming) and at day 20 after vaccination (post booster). Antibody titres were wer assayed by ELISA.

[7] = tested on: NK-sensitive YAC1 target cells; assay: NK cell-mediated cytotoxicity of spleen mononuclear cells, 51Cr-release against YAC1; conditions: FLV-inoculated mice, day 16, 18 h incubation with YAC1; FIG. 26
[8] = tested on: GM-CFC progenitors in bone marrow; assay: GM-CFC recovery, test compounds after sub-lethal irradiation; format: in vivo, ICR/CD-1 mice; conditions: s.c. 100 nmol 24 h after 6 Gy; FIG. 36
Procedure: as §1, §2
The method is exactly as described above except that the test compounds (volume of 200 μl, 100 nmol per dose) were administered 24 h after sublethal γ-irradiation (6 Gy).

[9] = liposomal preparations s.c. 100 nmol/kg, passes if below 1.1° C.

Row | SMILES | Restoration of BM Proliferation in Immunosuppressive Therapy (bone-marrow cells) | Positive animals (%) (incidence of EAE) [1] | dose response of NK cell activity [2] | clonal expansion of TER-119+ erythroleukaemia cells in spleen [3] | spleen size (weight) [3] | +ΔTmax (Sum of ΔTmax) [4, 9] | Day 6 Intest.: clear/infected/dead (Salmonella enteritidis) | Day 6 Liver: clear/infected/dead (Salmonella enteritidis) | Day 6 Lungs: clear/infected/dead (Salmonella enteritidis) | Day 6 Spleen: clear/infected/dead (Salmonella enteritidis) | Day 12 Intest.: clear/infected/dead (Salmonella enteritidis) | Day 12 Liver: clear/infected/dead (Salmonella enteritidis) | Day 12 Lungs: clear/infected/dead (Salmonella enteritidis) | Day 12 Spleen: clear/infected/dead (Salmonella enteritidis) | other results
1 | CC[C@H](NC(=O)CO[C@H]1[C@H](O[C@@H]2O[C@H](CO)[C@@H](O)[C@H](O)[C@H]2NC(C)=O)[C@@H](CO)OC(O)[C@@H]1NC(C)=O)C(=O)N[C@H](CCC(=O)O)C(N)=O (stereo partly drawn) [norAbu-GMDP] | ++ | 90% |  |  |  |  |  |  |  |  |  |  |  |  | Th1 stimulation (EAE) ([1]; guinea pigs sensitized with bovine MBP in IFA + compound, FIG. 31): superior to MDP and GMDP as Th1 adjuvants
2 | CCCCCCCCCCCCCCC(CCCCCCCCCCCCCC)C(=O)NCCCC[C@H](NC(=O)CC[C@@H](NC(=O)[C@H](CC)NC(=O)CO[C@H]1[C@H](O[C@@H]2O[C@H](CO)[C@@H](O)[C@H](O)[C@H]2NC(C)=O)[C@@H](CO)OC(O)[C@@H]1NC(C)=O)C(N)=O)C(=O)O (stereo partly drawn) [Compound 41, N-[2-O-(2-Acetamido-2-deoxy-β-D-glucopyranosyl-(1→4)-2-acetamido-2,3-dideoxy-D-glucopyranose-3-yl)-glycoloyl]-L-α-aminobutanoyl-D-isoglutaminyl-L-lysine(2-tetradecylhexadecanoyl)] |  |  | negative dose response | pronounced opposite effect | increased spleen size | 0.8 °C | 2/3/0 | 2/3/0 | 4/1/0 | 2/3/0 | 1/2/2 | 2/1/2 | 2/1/2 | 2/1/2 | survival, late phase (days 55 and 59), long-term ([3]; 10 μmol i.p., non-liposomal, control 0%, FIG. 23): ensure long-term survival; survival, early phase (day 43) ([3]; 10 μmol i.p., non-liposomal, saline control 82%, FIG. 23): survival rate worse than control
3 | CC(=O)N[C@H]1[C@H](O[C@H]2[C@H](O[C@H](C)C(=O)N[C@@H](C)C(=O)N[C@H](CCC(=O)O)C(N)=O)[C@@H](NC(C)=O)C(O)O[C@@H]2CO)O[C@H](CO)[C@@H](O)[C@@H]1O (stereo partly drawn) [GMDP, glucosaminylmuramyl dipeptide] | ++ | 65% |  |  |  |  |  |  |  |  |  |  |  |  | 
4 | CCC(NC(=O)COC1C(O)C(CO)OC(O)C1NC(C)=O)C(=O)NC(CCC(=O)O)C(N)=O (stereo not drawn) [norAbu-MDP] | + |  |  |  |  |  |  |  |  |  |  |  |  |  | 
5 | CCCCCCCCCCCCCCCCCC(=O)NCCCC[C@H](NC(=O)CC[C@@H](NC(=O)[C@H](CC)NC(=O)CO[C@H]1[C@H](O[C@@H]2O[C@H](CO)[C@@H](O)[C@H](O)[C@H]2NC(C)=O)[C@@H](CO)OC(O)[C@@H]1NC(C)=O)C(N)=O)C(=O)O (stereo partly drawn) [Compound 40, N-[2-O-(2-Acetamido-2-deoxy-βD-glucopyranosyl-(1→4)-2-acetamido-2,3-dideoxy-D-glucopyranose-3-yl)-glycoloyl]-L-α-aminobutanoyl-D-isoglutaminyl-L-lysine(stearoyl)] |  |  | negative dose response | dose-dependent, positive effect | spleen size slightly lower than the control | 0.6 °C | 4/1/0 | 4/1/0 | 4/1/0 | 5/0/0 | 0/2/3 | 1/1/3 | 1/1/3 | 1/1/3 | GM-CFC progenitor cells in bone marrow [5]: acceptable performance; antibody response to r-hsp90 proteoliposomes [6]: strong and comparable to AlOH; NK cell activity (cell-mediated cytotoxicity of SMCs) [7]: stimulate NK cell functional activity; GM-CFC progenitor cells in bone marrow [8]: strongest performers; also recorded: strongest effect; also recorded: one of the best effects
6 | CC(=O)N[C@@H]1[C@@H](O[C@H](C)C(=O)N[C@@H](C)C(=O)N[C@H](CCC(=O)O)C(N)=O)[C@H](O)[C@@H](CO)O[C@H]1O [MDP, muramyldipeptide] | + | 58% |  |  |  |  |  |  |  |  |  |  |  |  | +ΔTmax (Sum of ΔTmax) ([4]; MDP positive control 25 μg/kg (50.7 nmol/kg), liposomal or free): 2.9 °C
